# Test results as given in US20240417798A1, “THERAPY SELECTION AND TREATMENT OF NEURODEGENERATIVE DISORDERS” (Anavex Life Sciences Corp., priority 2021, published 2024).
# Columns and labels:
# [1] = test system: SIGMAR1; experiment: SIGMAR1 levels in patients of the PDD-001 trial; format: in vivo, human; settings: use by PDD patients; rise associated with improved attention measures and reduced MDS-UPDRS total and Part III
# Protocol: The trial enrolled 132 adults, ages 50-85, with PDD, and was successfully concluded in September 2020. Participants, recruited at multiple sites in Spain and Australia, were randomly assigned to one of two doses groups (with an escalating ANAVEX 2-73 dose up to 30 or 50 mg oral capsules) or to a placebo, once daily for 14 weeks (see FIG. 1 for details). The trial's main goals were to assess the therapy's safety and changes in patients' cognitive function, measured using the cognitive drug research computerized assessment system—a test that looks at multiple cognitive skills, such as choice reaction time (choosing between similar objects), vigilance, and episodic memory (remembering new personal experiences or shared information). Secondary goals included changes in patients' motor abilities—assessed with the Movement Disorders Society Unified Parkinson's Disease Rating Scale (MDS-UPDRS) Part III—and sleep quality. […] This sleep disorder is associated with greater cognitive impairment and a higher risk of dementia. […] After 14 weeks, the MDS-UPDRS total score dropped by 10.98 points (indicating an easing in disease severity) in the high-dose group and rose by 3.53 points in the placebo group. This represented an adjusted mean improvement of 14.51 points—surpassing the established, clinically meaningful 7.1 point-cut-off—and a relative improvement of 18.9% over 14 weeks. […]
# [2] = test system: gene clusters (Cluster 1, Cluster 2) of neurodegenerative pathways; experiment: Whole Blood Transcriptomics Analysis (RNAseq) of PDD patients, baseline vs Week 14, WGCNA gene clusters and pathway analysis; format: in vivo, human
# Protocol: In order to gain insights into ANAVEX 2-73 response pathways, during the Phase 2 study, patients' DNA and RNA sequencing were analyzed. Transcriptomic samples of 65 patients enrolled in either High Dose or Mid Dose arms were collected at baseline and at the end of treatment (Week 14). The expression of 14,150 genes was measured. No transformation was applied to the TPM values. Values associated with a with RIN≤4.0 were discarded. The actual dose of ANAVEX 2-73 (blarcamesine) that was given to each patient during the trial was assessed and integrated into the database. […]
# The genes were clustered together using WGCNA, starting from their correlation of TPM expression values across samples. […] For each cluster, the contrast ActualDose, i.e. treated vs placebo were evaluated across all timepoints. […] The ratio between cluster size and number of pathways was calculated, and top 2 clusters were retained for further Analysis. […] Known interactions between the genes of the cluster were assessed using STRING database with the parameters of Edge score >0.150, and no text mining edges. […]
# Whole Blood Transcriptomics Analysis (RNAseq) of patients with Parkinson's disease dementia (PDD) was performed for the ANAVEX®2-73-PDD-001 study (FIG. 1) at two timepoints: Baseline and Week 14 (end of trial). All available RNA samples with […] (RNA integrity number, using 130 samples) were analyzed. […]
# [3] = test system: patients with Parkinson's Disease Dementia (PDD); settings: previously reported results; cited from earlier work
# [4] = test system: patients with Parkinson's Disease Dementia (PDD); experiment: Phase 2 ANAVEX2-73-PDD-001 study, randomized, double blind, placebo-controlled, oral capsules once daily for 14 weeks; format: in vivo, human
# Protocol: In order to assess the safety, tolerability and efficacy of ANAVEX®2-73 (blarcamesine) oral capsules in treating cognitive impairment in patients with Parkinson's Disease with Dementia (PDD), a phase 2 study, coded “ANAVEX®2-73-PDD-001 study” (FIG. 1), was conducted. The study was multi-center, randomized, double blind, placebo-controlled, parallel group with 3-arm. The study included a 2-week Screening/Baseline Observation Period and a 14-week Treatment Period (including a 2 week Titration Period), and a 2-week Safety Follow-Up Period. A total of 132 patients were enrolled in the study and were randomly assigned to three testing arms (FIG. 1). In ANAVEX2-73 High Dose arm, 44 patients were given oral capsules of ANAVEX2-73 once daily in an escalating dose of 10 mg, 20 mg, 30 mg and 50 mg. In ANAVEX2-73 Mid Dose arm, 44 patients were given oral capsules of ANAVEX2-73 once daily in an escalating dose of 10 mg, 20 mg, and 30 mg. In placebo group, 44 patients were given placebo capsules. Outcome measures included Cognitive Drug Research (CDR) Computerized Assessment System on Continuity of Attention; Change from Baseline to End of Treatment in Continuity of Attention as measured by Cognitive Drug Research (CDR) Computerized Assessment System Continuity of Attention; Number of participants with treatment-related adverse events as assessed by CTCAE v4.0 [Time Frame: 14 weeks]; Assessment of the safety and tolerability of ANAVEX2-73 compared to placebo; MDS-UPDRS Part III Total Score (Motor Scores); Change from baseline to End of Treatment as measured by MDS-UPDRS Part III Total Score (Motor Scores); SDS-CL-25 [Time Frame: 14 weeks]; Incidence of sleep disorders symptoms (SDS-CL-25); and DNA/RNA Sequencing.
# The trial enrolled 132 adults, ages 50-85, with PDD, and was successfully concluded in September 2020. Participants, recruited at multiple sites in Spain and Australia, were randomly assigned to one of two doses groups (with an escalating ANAVEX 2-73 dose up to 30 or 50 mg oral capsules) or to a placebo, once daily for 14 weeks (see FIG. 1 for details). The trial's main goals were to assess the therapy's safety and changes in patients' cognitive function, measured using the cognitive drug research computerized assessment system—a test that looks at multiple cognitive skills, such as choice reaction time (choosing between similar objects), vigilance, and episodic memory (remembering new personal experiences or shared information). Secondary goals included changes in patients' motor abilities—assessed with the Movement Disorders Society Unified Parkinson's Disease Rating Scale (MDS-UPDRS) Part III—and sleep quality. […] This sleep disorder is associated with greater cognitive impairment and a higher risk of dementia. […]
# [5] = molecular target: T1, Sigma-1 receptor (SIGMAR1) (Homo sapiens, UniProt Q99720); settings: quantitative PET scan; cited from earlier work
# T1 construct: host or cells: in vivo PET scan
# T1 sequence (Q99720 whole entry, species assumed): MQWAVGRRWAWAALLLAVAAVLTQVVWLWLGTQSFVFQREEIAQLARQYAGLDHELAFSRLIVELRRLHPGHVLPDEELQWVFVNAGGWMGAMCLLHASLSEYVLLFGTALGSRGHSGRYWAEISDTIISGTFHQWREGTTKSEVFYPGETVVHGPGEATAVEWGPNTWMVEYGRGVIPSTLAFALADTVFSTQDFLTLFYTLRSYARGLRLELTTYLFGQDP
smiles,measurement,setting,value
"CN(C)CC1CCOC1(c1ccccc1)c1ccccc1.Cl (centres unmarked) [ANAVEX 2-73, tetrahydro-N, N-dimethyl-2,2-diphenyl-3-furanmethanamine hydrochloride]",SIGMAR1 levels,[1],significant increase in SIGMAR1 levels
same,"Expression of both identified gene clusters, treated patients compared to placebo",[2]; after 14 weeks of treatment,up-regulated
same,"Dysregulations of Cluster 1 and Cluster 2, link to dose","[2]; linear mixed effect model, Dunnett's test",significantly linked to the highest dose
same,Cognitive skills,[3],significantly improved several cognitive skills
same,REM sleep behavior disorder,[3],lessened REM sleep behavior disorder
same,Safety,[3],generally safe
same,"Cognitive and sleep benefits, current trial data",[4]; data obtained from the current trial,confirmed these cognitive and sleep benefits
same,"MDS-UPDRS total score, adjusted mean improvement vs placebo","[4]; high dose (50 mg), 14 weeks, clinically meaningful cut-off 7.1 points",14.51 points
same,"MDS-UPDRS total score, relative improvement","[4]; high dose (50 mg), over 14 weeks",18.9%
same,"MDS-UPDRS total score, drop from baseline (easing in disease severity)","[4]; high-dose group (50 mg), after 14 weeks",10.98 points
same,Direct occupancy at SIGMAR1,[5],has been established
